Laboratory results: patent publication US5635520A, “Anti-ulcer compositions suitable for rectal administration” (Takeda Chemical Industries, Ltd., priority 1993, dated 1997)
Like-named read-outs stand apart in the source and are kept apart here.

Experiments:
in vivo = assay: in vivo; set-up: species or system Male SD rats; conditions: rat, plasma; for AUC at 8 h: 0-8 hr, read-out: AUC0^8 (Area under the plasma concentration time curve)
Protocol: In the same manner as Experiment Example 1 mentioned above, 960 mg of PEG-6000, 20 mg of lansoprazole and 20 mg of sodium oleate were evenly melted and dispersed. The resulting dispersion was filled in 200 mg portions into metallic rectal suppository containers for rats and cooled to provide composition for rectal administration for rats. In addition, using 960 mg of Witepsol W-35 (Dynamit Nobel), 20 mg of lansoprazole and 20 mg of sodium oleate, composition for rectal administration for rats in otherwise the same manner as above.
Male SD rats weighing 250-280 g (Japan Clea) were provided. The animals were allowed food and water ad libitum and, then, fasted for about 16 hours (water was available ad libitum). Using the rats fasted for about 16 hours, the composition for rectal administration prepared above were inserted into the anus and, to prevent expulsion of the drug, the perianal skin was clipped.
For control purposes, 80 mg of lansoprazole, 1.5 ml of PEG-400 and 9.5 ml of 0.5% aqueous solution of sodium hydrogen carbonate were admixed to prepare an injectable solution. This solution was injected, in a volume of 0.25 ml, into the femoral vein of each rat (intravenous dosing).
At 0.08, 0.17, 0.25, 0.5, 1.0, 2.0, 4.0 and 8.0 hours after administration,the blood was drawn from the caudal vein of rats using a blood sampling tube containing a small amount of heparin. Each blood sample was centrifuged (3000 rpm, 10 min.) to separate the plasma (0.1 ml) and lansoprazole in each plasma sample was assayed. The assay method was as follows. To 0.1 ml of plasma were added 0.5 ml of 0.5% aqueous solution of sodium hydrogen carbonate and 3 ml of chloroform and the mixture was shaken vigorously for about 5 minutes and centrifuged at 2500 rpm for about 5 minutes. The under layer (chloroform layer), 2 ml, was taken and the solvent chloform was evaporated off by blasting with nitrogen gas. The residue was redissolved in 0.2 ml of HPLC mobile phase and subjected to HPLC analysis (injection amount 50 μl) under the following conditions.
Column: YMC A-303 (5 μm), 4.6 mm in internal diameter and 25 cm in length (YMC).
Mobile phase: a mixture of water, acetonitrile and triethylamine (60:40:1) adjusted to pH 7.0 with phosphoric acid.
Detection: A UV spectrophotometer (exciting wavelength 285 nm)
Column temperature: Room temperature

[1] = Stability of lansoprazole composition for rectal administration: change in color on storage at 40° C. and 75% relative humidity (Experimental Example 2); type: physicochemical; conditions: relative humidity 75%, conclusion from Table 2
Protocol: (§1) After each of them was melted by warming at 60° C., 20 mg of lansoprazole and a specified amount [See Table 1] of sodium oleate were admixed with the base to prepare a composition. Each composition was stored at room temperature (25° C.) and the change in color was evaluated by comparing it with the composition prior to storage.
Using different fatty acid salts, the stability of lansoprazole in compositions for rectal administration was evaluated by the same procedure as Experiment Example 1. EPG-4000 or Witepsol W-35 was used as the base and sodium oleate, sodium palmitate or sodium caprate was used as the fatty acid salt, each in the amount indicated in Table 2. In this stability test, the test compositions were stored at a temperature of 40° C. and a relative humidity of 75%.

[2] = Stability of lansoprazole composition for rectal administration: change in color on storage at room temperature (25° C.) (Experiment Example 1); type: physicochemical; conditions: conclusion from Table 1
Protocol: Using PEG-4000 (Wako Pure Chemical Industries, Japan) or Witepsol W-35 (Dynamit Novel, Germany) as a base for rectal administration, the stability of lansoprazole in the composition was compared between the inclusion of sodium oleate and the exclusion of sodium oleate.
as §1

[3] = Rectal, Oleaginous base (Witepsol W-35) with sodium oleate
[4] = Rectal, Water-soluble base (PEG-6000) with sodium oleate

## Cc1c(OCC(F)(F)F)ccnc1C[S+]([O-])c1nc2ccccc2[nH]1 (stereo not shown) [lansoprazole, 2-[2-[3-methyl-4-(2,2,2-trifluoroethoxy)pyridyl]methylsulfinyl]benzimidazole]
In vivo; [3]
  AUC at 8 h: 1080 ng·h/mL
  concentration at 0.08 h: 90 ng/mL
  concentration at 0.17 h: 140 ng/mL
  concentration at 0.25 h: 210 ng/mL
  concentration at 0.5 h: 310 ng/mL
  concentration at 1 h: 360 ng/mL
  concentration at 2 h: 180 ng/mL
  concentration at 4 h: 90 ng/mL
  concentration at 8 h: 50 ng/mL
In vivo; [4]
  AUC at 8 h: 890 ng·h/mL
  concentration at 0.08 h: 160 ng/mL
  concentration at 0.17 h: 240 ng/mL
  concentration at 0.25 h: 310 ng/mL
  concentration at 0.5 h: 420 ng/mL
  concentration at 1 h: 330 ng/mL
  concentration at 2 h: 110 ng/mL
  concentration at 4 h: 60 ng/mL
  concentration at 8 h: 30 ng/mL
In vivo; iv
  AUC at 8 h: 3860 ng·h/mL
  concentration at 0.08 h: 6960 ng/mL
  concentration at 0.17 h: 5390 ng/mL
  concentration at 0.25 h: 4830 ng/mL
  concentration at 0.5 h: 3280 ng/mL
  concentration at 1 h: 910 ng/mL
  concentration at 2 h: 70 ng/mL
  concentration at 4 h: 5 ng/mL
  concentration at 8 h: 2 ng/mL

## CCCCCCCCCC(=O)[O-].[Na+] [sodium caprate]
[1]
  contribution to the stability of the active drug: contributed a great deal to the stability of the active drug

## CCCCCCCC/C=C\CCCCCCCC(=O)[O-].[Na+] [sodium oleate]
[2]
  stabilization of lansoprazole: stabilized lansoprazole
[1]
  contribution to the stability of the active drug: contributed a great deal to the stability of the active drug

## CCCCCCCCCCCCCCCC(=O)[O-].[Na+] [sodium palmitate]
[1]
  contribution to the stability of the active drug: contributed a great deal to the stability of the active drug
